Measured values as given in US20090325952A1, “PYRAZOLO[3,4-B]PYRIDINE COMPOUNDS, AND THEIR USE AS PDE4 INHIBITORS” (Glaxo Group Limited, priority 2006, published 2009).
Counter-ions that a name gives are not always drawn.

These molecules were tested against T1, PDE4B (human recombinant) (Homo sapiens, UniProt Q07343) (assay: Inhibition of PDE4B activity (FP and/or SPA assay)). Conditions: generally FP assay; one reading or average of n readings; read-out: PDE4B pIC50 (generally in FP assay) (±about 0.5) (converted).
T1 construct: made in house; host or cells: Saccharomyces cerevisiae strain GL62 (PDE-deficient yeast)
Type: biochemical
Source text: Human recombinant PDE4B, in particular the 2B splice variant thereof (HSPDE4B2B), is disclosed in WO 94/20079 and also M. M. McLaughlin et al., “A low Km, rolipram-sensitive, cAMP-specific phosphodiesterase from human brain: cloning and expression of cDNA, biochemical characterisation of recombinant protein, and tissue distribution of mRNA”, J. Biol. Chem., 1993, 268, 6470-6476. For example, in Example 1 of WO 94/20079, human recombinant PDE4B is described as being expressed in the PDE-deficient yeast Saccharomyces cerevisiae strain GL62, e.g. after induction by addition of 150 uM CuSO4, and 100,000×g supernatant fractions of yeast cell lysates are described for use in the harvesting of PDE4B enzyme.
The ability of compounds to inhibit catalytic activity at PDE4B or 4D (human recombinant), PDE3 (from bovine aorta), PDE5 (human recombinant) or PDE6 (from bovine retina) can optionally be determined by Scintillation Proximity Assay (SPA) in a 96-well format.
Test compounds (as a solution in DMSO, suitably about 2 microlitre (ul) volume of DMSO solution) are preincubated at ambient temperature (room temperature, e.g. 19-23° C.) in Wallac Isoplates (code 1450-514) with PDE enzyme in 50 mM Tris-HCl buffer pH 7.5, 8.3 mM MgCl2, 1.7 mM EGTA, 0.05% (w/v) bovine serum albumin for 10-30 minutes (usually 30 minutes). The enzyme concentration is adjusted so that no more than 20% hydrolysis of the substrate defined below occurs in control wells without compound, during the incubation. For the PDE3, PDE4B and PDE4D assays, [5′,8-^3H]Adenosine 3′,5′-cyclic phosphate (Amersham Pharmacia Biotech, code TRK.559; or Amersham Biosciences UK Ltd, Pollards Wood, Chalfont St Giles, Buckinghamshire HP8 4SP, UK) is added to give 0.05uCi per well and about 10 nM final concentration. For the PDE5 and PDE6 assays, [8^−3H]Guanosine 3′,5′-cyclic phosphate (Amersham Pharmacia Biotech, code TRK.392) is added to give 0.05uCi per well and about 36 nM final concentration. Plates containing assay mixture, suitably approx. 100 ul volume of assay mixture, are mixed on an orbital shaker for 5 minutes and incubated at ambient temperature for 1 hour. Phosphodiesterase SPA beads (Amersham Pharmacia Biotech, code RPNQ 0150) are added (about 1 mg per well) to terminate the assay. Plates are sealed and shaken and allowed to stand at ambient temperature for 35 minutes to 1 hour (suitably 35 minutes) to allow the beads to settle. Bound radioactive product is measured using a WALLAC TRILUX 1450 Microbeta scintillation counter. For inhibition curves, 10 concentrations (e.g. 1.5 nM-30 uM) of each compound are assayed. Curves are analysed using ActivityBase and XLfit (ID Business Solutions Limited, 2 Ocean Court, Surrey Research Park, Guildford, Surrey GU2 7QB, United Kingdom) Results are expressed as pIC50 values.
The ability of compounds to inhibit catalytic activity at PDE4B (human recombinant) or PDE4D (human recombinant) can optionally be determined by IMAP Fluorescence Polarisation (FP) assay (IMAP Explorer kit, available from Molecular Devices Corporation, Sunnydale, Calif., USA; Molecular Devices code: R8062) in 384-well format.
The IMAP FP assay is able to measure PDE activity in an homogenous, non-radioactive assay format. The FP assay uses the ability of immobilised trivalent metal cations, coated onto nanoparticles (tiny beads), to bind the phosphate group of Fl-AMP that is produced on the hydrolysis of fluorescein-labelled (Fl) cyclic adenosine mono-phosphate (Fl-cAMP) to the non-cyclic Fl-AMP form. […] Binding of Fl-AMP product to the beads (coated with the immobilised trivalent cations) slows the rotation of the bound Fl-AMP and leads to an increase in the fluorescence polarisation ratio of parallel to perpendicular light. Inhibition of the PDE reduces/inhibits this signal increase. […]

T1 sequence (Q07343 1-564 isoform Q07343-2): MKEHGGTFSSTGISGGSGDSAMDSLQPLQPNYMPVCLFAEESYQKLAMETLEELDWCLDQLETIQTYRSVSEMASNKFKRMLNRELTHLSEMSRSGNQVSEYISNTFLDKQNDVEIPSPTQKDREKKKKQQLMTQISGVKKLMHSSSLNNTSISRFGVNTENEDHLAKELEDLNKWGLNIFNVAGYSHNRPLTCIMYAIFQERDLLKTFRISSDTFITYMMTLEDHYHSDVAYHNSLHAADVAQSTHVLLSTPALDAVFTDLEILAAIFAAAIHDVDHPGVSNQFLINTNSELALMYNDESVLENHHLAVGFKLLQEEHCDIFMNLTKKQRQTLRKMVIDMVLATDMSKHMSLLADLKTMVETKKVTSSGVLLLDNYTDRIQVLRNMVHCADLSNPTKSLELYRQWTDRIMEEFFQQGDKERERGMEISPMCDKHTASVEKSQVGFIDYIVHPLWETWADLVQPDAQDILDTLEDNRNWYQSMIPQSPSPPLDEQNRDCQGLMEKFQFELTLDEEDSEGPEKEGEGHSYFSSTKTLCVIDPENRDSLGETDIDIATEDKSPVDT

SMILES | IC50 [nM]
CCc1nc2c(cnn2CC)c(NC2CCOCC2)c1CNC(=O)c1ccc(NC(=O)CCCCCCCN(C)CCO)cc1 [Example 1A1, N-{[1,6-Diethyl-4-(tetrahydro-2H-pyran-4-ylamino)-1H-pyrazolo[3,4-b]pyridin-5-yl]methyl}-4-({8-[(2-hydroxyethyl)(methyl)amino]octanoyl}amino)benzamide dihydrochloride] | ~0.0501
CCc1nc2c(cnn2CC)c(NC2CCOCC2)c1CNC(=O)c1ccc(NC(=O)CCCCCCCN(C)CCO)cc1 [Example 1B, N-{[1,6-diethyl-4-(tetrahydro-2H-pyran-4-ylamino)-1H-pyrazolo[3,4-b]pyridin-5-yl]methyl}-4-({8-[(2-hydroxyethyl)(methyl)amino]octanoyl}amino)benzamide] | ~0.0631
CCc1nc2c(cnn2CC)c(NC2CCOCC2)c1CNC(=O)c1ccc(CCCCOCCCCN(C)CCO)cc1 [Example 19, formate salt of N-{[1,6-diethyl-4-(tetrahydro-2H-pyran-4-ylamino)-1H-pyrazolo[3,4-b]pyridin-5-yl]methyl}-4-[4-({4-[(2-hydroxyethyl)(methyl)amino]butyl}oxy)butyl]benzamide] | ~0.0398
CCc1nc2c(cnn2CC)c(NC2CCN(C(N)=O)CC2)c1CNC(=O)c1ccc(CCCCOCCCCN2CCOCC2)cc1 [Example 23A, 4-({1,6-diethyl-5-[({[4-(4-{[4-(4-morpholinyl)butyl]oxy}butyl)phenyl]carbonyl}amino)methyl]-1H-pyrazolo[3,4-b]pyridin-4-yl}amino)-1-piperidinecarboxamide] | ~0.1
CCn1ncc2c(NC3CCOCC3)c(CNC(=O)c3ccc(NC(=O)CCCCCCCN(C)CCO)cc3)cnc21 [Example 26, Formate salt of N-{[1-ethyl-4-(tetrahydro-2H-pyran-4-ylamino)-1H-pyrazolo[3,4-b]pyridin-5-yl]methyl}-4-({8-[(2-hydroxyethyl)(methyl)amino]octanoyl}amino)benzamide] | ~0.251

Same assay, conditions: one reading or average of n readings

SMILES | PDE4B pIC50 (generally in FP assay) (±about 0.5)
CCc1nc2c(cnn2CC)c(NC2CCN(C(N)=O)CC2)c1CNC(=O)c1ccc(NC(=O)CCCCCCCN(C)CCO)cc1.O=C(O)C(F)(F)F [Example 9, 4-({1,6-diethyl-5-[({[4-({8-[(2-hydroxyethyl)(methyl)amino]octanoyl}amino)phenyl]carbonyl}amino)methyl]-1H-pyrazolo[3,4-b]pyridin-4-yl}amino)-1-piperidinecarboxamide trifluoroacetate (salt)] | about 10.3 (n = 1)
